Source: PMC11157491, “Novel Alaninamide Derivatives with Drug-like Potential for Development as Antiseizure and Antinociceptive Therapies—In Vitro and In Vivo Characterization” (ACS Chemical Neuroscience, 2024)

What was measured:
[1] = test system: mice; experiment: Maximal electroshock (MES) seizure test; type: in vivo; conditions: for responders at 100 mg/kg / ED50: Mus musculus, ip; for responders at 100 mg/kg: read-out: MES: number of mice protected/number of mice tested (converted); for ED50: mice, pretreatment 0.5 h
Text: (§1) Identification and profiling of new ASM candidate compounds are still largely based on predictive animal models of seizures/epilepsy, while a range of in silico and in vitro approaches (i.e., molecular modeling or high throughput screening, etc.) are increasingly used in the early stages of ASM discovery.[31] The Epilepsy Therapy Screening Program (ETSP) of the National Institute of Neurological Disorders and Stroke (NIH, Bethesda, MD) has enabled the discovery of several approved ASMs by focusing on the in vivo testing of compounds synthesized by both academic laboratories and industry.[32] The ETSP provides a broad panel of seizure tests (ca. 30 rodent models), but a subset of them is used for the initial screening of new compounds with potential antiseizure activity. The routinely used seizure models include: (i) the MES test, which is an experimental model of tonic–clonic seizures, (ii) the 6 Hz model (32 mA) of focal seizures, and (iii) the scPTZ model of generalized absence or myoclonic seizures.[33],[34] Consequently, in the current studies, all final compounds 21–36 and 45–48 were initially studied in the MES and the 6 Hz (32 mA) seizure models after intraperitoneal (i.p.) administration at a screening dose of 100 mg/kg in mice at a time point of 0.5 h (the screening group consisted of four mice, and the results obtained are summarized in Table S1).
(§2) These parameters were then used to calculate the protective indexes (PIs, PI = TD50/ED50), which describe the therapeutics window of potential drug candidates. The ED50, TD50, and PI values for the tested compounds together with data of their chemical prototypes KA-11 and KJ-5 and reference ASMs are summarized in Table 2.
(§3) The adult male Albino Swiss mice weighed between 22 and 26 g were used in the in vivo studies. They were housed under standardized housing conditions in colony cages and had free access to food as well as tap water. The animals were left to adapt under laboratory conditions for 7 days. All procedures involving animals and their care were performed in accordance with the current European Community and Polish legislation on animal experimentation.
(§4) In the initial screening studies, four mice per group were randomly assigned to each experimental group (each mouse was used only once). To evaluate the ED50 or TD50 values, four groups consisting of eight animals were injected with various doses of tested compounds. The protective indexes (PIs) for the compounds investigated and reference ASMs were calculated by dividing the TD50 value, as determined in the chimney test, by the respective ED50 value, as determined in the MES, scPTZ, or 6 Hz (32 or 44 mA) tests (PI = TD50/ED50). The PIs are a measure of the potential therapeutic window of the tested agent.
(§5) All substances were suspended in Tween 80 (1% aqueous solution) and administered i.p. as a single injection at a dose of 10 mL/kg. On each day of experimentation, fresh solutions were prepared. The detailed in vivo procedures are described elsewhere: the maximal electroshock seizure test (MES),[60] the subcutaneous pentylenetetrazole seizure test (scPTZ),[61] the 6 Hz psychomotor seizure model (32 and 44 mA),[62] and the chimney test.[63] The reference ASMs were purchased from commercial suppliers: VPA (Sigma-Aldrich, St. Louis, MO), LCS, and LEV (UCB Pharma, Braine l’Alleud, Belgium).

[2] = test system: mice; experiment: 6 Hz (32 mA) psychomotor seizure model; type: in vivo; conditions: Mus musculus, ip; for responders at 100 mg/kg: 100 mg/kg i.p., 0.5 h; for ED50: mice, pretreatment 0.5 h
Text: as §1, §2, §3, §4, §5

[3] = test system: mice; experiment: 6 Hz (44 mA) model of pharmacoresistant seizures; type: in vivo; conditions: Mus musculus, ip, pretreatment 0.5 h
Procedure: Based on the promising pharmacological data for 26 and 28, and especially potent protection in the 6 Hz (32 mA) seizure model, both compounds were tested subsequently in the 6 Hz seizure model, applying a higher current intensity of 44 mA (Table 3). Importantly, this test is recognized as one of the key animal models of pharmacoresistant seizures, utilized in the early stage of new ASMs’ development.
as §4
All substances were suspended in Tween 80 (1% aqueous solution) and administered i.p. as a single injection at a dose of 10 mL/kg. On each day of experimentation, fresh solutions were prepared. […]

[4] = molecular target: CYP2D6 (Homo sapiens, UniProt P10635); conditions: 1 μM
CYP2D6, sequence (P10635 whole entry): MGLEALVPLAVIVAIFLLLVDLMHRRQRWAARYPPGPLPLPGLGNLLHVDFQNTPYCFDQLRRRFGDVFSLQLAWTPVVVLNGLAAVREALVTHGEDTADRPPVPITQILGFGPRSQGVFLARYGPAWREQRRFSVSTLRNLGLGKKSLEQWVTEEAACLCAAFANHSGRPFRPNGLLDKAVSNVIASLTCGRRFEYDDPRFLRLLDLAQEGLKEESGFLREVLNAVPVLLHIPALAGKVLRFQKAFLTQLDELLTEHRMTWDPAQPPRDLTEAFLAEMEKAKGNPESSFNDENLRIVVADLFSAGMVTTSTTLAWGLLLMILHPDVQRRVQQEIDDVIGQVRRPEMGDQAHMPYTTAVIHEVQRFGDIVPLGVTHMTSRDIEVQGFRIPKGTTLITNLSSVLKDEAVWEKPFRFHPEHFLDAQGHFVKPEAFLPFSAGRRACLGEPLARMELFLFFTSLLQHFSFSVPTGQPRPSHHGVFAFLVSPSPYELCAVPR

[5] = test system: mice; experiment: Grip strength test; type: in vivo; conditions: 50 mg/kg i.p., 30 min before test
Procedure: The grip strength test was performed just before the ivPTZ test to assess the acute effect of compounds 26 and 28 on neuromuscular strength.
In studies assessing the acute effect of compounds 26 and 28 on the ivPTZ seizure threshold and neuromuscular strength, the compounds were suspended in a 1% solution of Tween 80 and administered i.p., at a dose of 50 mg/kg of body weight, 30 min before the tests. The experimental procedures of the timed ivPTZ test and the grip strength test were described in detail elsewhere.[64]
Data from the ivPTZ test and the grip strength test were analyzed using Student’s t-test.
Figure S1. Acute effects of compound 26 (A) and 28 (B) on grip strength in mice. Both compounds were administered i.p. at a dose of 50 mg/kg, 30 min before the test. Control animals received vehicle. Data are presented as means ± SEM of grip strength expressed in mN/g of body weight (n = 10animals). The statistical significance was evaluated by a Student's t test (GraphPad Prism 8). […]
Behavioral tests were performed 24 h after the last PTZ injection. […] The statistical significance was evaluated by one-way ANOVA followed by the Tukey’s post hoc test: *p < 0.05, (GraphPad Prism 8). […]

[6] = test system: Na^+ channel (site 2); experiment: Na+ channel (site 2) radioligand binding; conditions: 100 μM, rat cerebral cortex
Procedure: Importantly, sodium or calcium conductance is often associated with the pathophysiology of epilepsy as well as neuropathic pain.[46]−[50] Therefore, both sodium and calcium ion channels are well-established molecular targets for structurally diverse ASMs such as LCS, lamotrigine, carbamazepine, oxcarbazepine, etc.[51] Consequently, we carried out binding and/or functional studies toward the sodium channel (site 2) and calcium Cav1.2 channel at high concentrations (100 μM) of 26 and 28 (Table 5). […] Next, 26 and 28 due to the presence of the phenylpiperazine moiety, which is a well-recognized pharmacophore for serotoninergic receptor (5-HTxR) ligands,[52] were evaluated for their influence on 5-HT2CR, where stimulation plays a key role for the antiseizure activity of lorcaserin (one of the newest ASMs).[6]
Binding/functional studies were carried out commercially in Eurofins Laboratories (Poitiers, France) and Eurofins Panlabs Discovery Services Taiwan, Ltd. (New Taipei City, Taiwan) using testing procedures that were reported previously (for details, see Table S2).
Table S2. Radioligand binding and functional assays. […]
Assays were performed commercially in Eurofins Laboratories ( Poitiers, France) or Eurofins Panlabs Discovery Services
Taiwan, Ltd. (New Taipei City, Taiwan).

[7] = four mice, read-out: protection in 6 Hz (32 mA) screening
[8] = read-out: 6 Hz (32 mA): number of mice protected/number of mice tested (converted)

| Compound | antiseizure protection in MES screening ([1]; 100 mg/kg i.p., 0.5 h, four mice) | responders at 100 mg/kg ([1]; 100 mg/kg i.p., 0.5 h) | ED50 [1] | responders at 100 mg/kg [2, 7] | responders at 100 mg/kg [2, 8] | ED50 [2] | ED50 [3] | CYP2D6 activity (% of control ± SD) [4] | neuromuscular strength (grip strength) [5] | % inhibition of control specific binding [6] |
| --- | --- | --- | --- | --- | --- | --- | --- | --- | --- | --- |
| CC(=O)NC(C)C(=O)N1CCN(c2cccc(C(F)(F)F)c2)CC1 (stereo not shown) [Compound 26, N-(1-oxo-1-(4-(3-(Trifluoromethyl)phenyl)piperazin-1-yl)propan-2-yl)acetamide] | 100% | 100% | 64.3 mg/kg | 100% | 100% | 15.6 mg/kg | 29.9 mg/kg | 122.8 ± 11.7% | Neither compound 26 nor 28 (50 mg/kg) significantly affect | 4.5 (100) % |
| CC(=O)NC(C)C(=O)N1CCN(c2cccc(OC(F)(F)F)c2)CC1 (stereo not shown) [Compound 28, N-(1-oxo-1-(4-(3-(Trifluoromethoxy)phenyl)piperazin-1-yl)propan-2-yl)acetamide] | – | 100% | 34.9 mg/kg | 100% | 100% | 12.1 mg/kg | 29.5 mg/kg | 115.0 ± 4.5% | Neither compound 26 nor 28 (50 mg/kg) significantly affect | –6.9 (100) % |
